Test systems include SNB-75; SF-268; OVCAR-5; DU-145; SK-MEL-5; NCI-H460; BT-549; SK-OV-3; ACHN; T47D; MDA-MB-231; PC-3; MDA-MB-435; U-251; MCF7; SW-620; SK-MEL-2; RPMI-8226; Hs-578T; HL-60.
Common to all, as to test: DTP human tumour cell line panel, 48 h

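Briefly, cells in 96-well plates were exposed to five compound concentrations for 48 h, and endpoints were estimated by linear interpolation. GI50 marks 50% less growth.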 Active and inactive are the calls of the source. No stated cut-off is given here; in the data, active = GI50 up to about 1.1 µM and inactive = higher.

In general, GI50 refers to the concentration that inhibits growth by half. Take `COc1ccc(-c2cc(=O)c3c(O)c(OC)c(OC)c(OC)c3o2)cc1` [GARDENIN B]: the GI50 was 10.2 µM (inactive) with SNB-75; > 68.4 µM (inactive) with SF-268; 98.6 µM (inactive) with OVCAR-5; > 100 µM (inactive) in the test with DU-145; 5.52 µM (inactive) in the test with SK-MEL-5; 24.9 µM (inactive) in the test with NCI-H460. Moreover, the GI50 with BT-549 is 16.2 µM (inactive); in the test on SK-OV-3, 8.38 µM (inactive); in the test on ACHN, > 100 µM (inactive); in the test with T47D, 26.9 µM (inactive); with MDA-MB-231, 12.6 µM (inactive); with PC-3 it was 30 µM (inactive). The GI50 in the test with MDA-MB-435 is 0.431 µM (active); with U-251, 15.5 µM (inactive); in the test on MCF7, 4.86 µM (inactive); in the test with SW-620, 2.13 µM (inactive); in the test with SK-MEL-2 it was 12.8 µM (inactive); in the test on RPMI-8226 it was > 28.1 µM (inactive). Also, the GI50 in the test on Hs-578T was 26.2 µM (inactive); in the test on HL-60 it was 0.863 µM (active).
